According to BigSolDB 2.1:

Cc1c(C(=O)c2c[nH]n(C)c2=O)ccc(S(C)(=O)=O)c1C1=NOCC1
solubility (mole fraction)
Details	283.15 K	288.15 K	293.15 K	298.15 K	303.15 K	308.15 K	313.15 K	318.15 K	323.15 K
in THF	0.00274	0.0031	0.00351	0.00397	0.00449	0.00509	0.00576	0.00652	0.00738
in acetone	0.00112	0.0013	0.00151	0.00176	0.00204	0.00236	0.00274	0.00318	0.0037
in acetonitrile	0.000648	0.000778	0.000934	0.00112	0.00134	0.00161	0.00194	0.00232	0.00279
in ethanol	6.16e-05	8.08e-05	0.000106	0.000139	0.000182	0.000239	0.000314	0.000412	0.000541
in ethyl acetate	0.000521	0.000624	0.000747	0.000894	0.00107	0.00128	0.00153	0.00183	0.0022
in isobutanol	4.16e-05	5.6e-05	7.53e-05	0.000101	0.000137	0.000184	0.000247	0.000333	0.000449
in isobutyl acetate	0.000421	0.000481	0.000549	0.000627	0.000716	0.000818	0.000934	0.00107	0.00122
in isopropanol	3.8e-05	5.11e-05	6.87e-05	9.23e-05	0.000124	0.000167	0.000224	0.000302	0.000405
in isopropyl acetate	0.000297	0.000353	0.00042	0.000499	0.000594	0.000706	0.000839	0.000997	0.00119
in methanol	0.000139	0.000173	0.000215	0.000267	0.000333	0.000414	0.000516	0.000642	0.000799
in methyl acetate	0.000989	0.00116	0.00135	0.00157	0.00184	0.00215	0.00251	0.00293	0.00342
in n-butanol	6.22e-05	8.09e-05	0.000105	0.000137	0.000178	0.000232	0.000301	0.000392	0.00051
in n-butyl acetate	0.000355	0.000419	0.000495	0.000584	0.00069	0.000815	0.000962	0.00114	0.00134
in n-propanol	5.61e-05	7.35e-05	9.63e-05	0.000126	0.000165	0.000217	0.000284	0.000372	0.000488
in n-propyl acetate	0.000415	0.000496	0.000594	0.00071	0.000849	0.00101	0.00121	0.00145	0.00173
in toluene	0.000256	0.0003	0.00035	0.00041	0.000479	0.00056	0.000655	0.000766	0.000895
